According to article PMC2099433, “The binding site for neohesperidin dihydrochalcone at the human sweet taste receptor” (BMC Structural Biology, 2007):
Residue numbers refer to the chain shown, from its start. Where a SMILES comes first, the peptide text is derived from it.

What was measured:
[1] = molecular target: T1, hTAS1R2 + hTAS1R3 C801I^7.39 (Homo sapiens, UniProt Q7RTX0+Q8TE23, C801I); experiment: Calcium response (FLIPR), hTAS1R3 mutant coexpressed with hTAS1R2; format: cell-based; settings: for EC50 / Emax: variant C801I^7.39; for Emax: read-out: maximal signal (% of wt)
T1 construct: expressed in transfected cells; host or cells: HEK293T cells stably expressing G16Gust44
T1 sequence (Q7RTX0 21-852 C801I): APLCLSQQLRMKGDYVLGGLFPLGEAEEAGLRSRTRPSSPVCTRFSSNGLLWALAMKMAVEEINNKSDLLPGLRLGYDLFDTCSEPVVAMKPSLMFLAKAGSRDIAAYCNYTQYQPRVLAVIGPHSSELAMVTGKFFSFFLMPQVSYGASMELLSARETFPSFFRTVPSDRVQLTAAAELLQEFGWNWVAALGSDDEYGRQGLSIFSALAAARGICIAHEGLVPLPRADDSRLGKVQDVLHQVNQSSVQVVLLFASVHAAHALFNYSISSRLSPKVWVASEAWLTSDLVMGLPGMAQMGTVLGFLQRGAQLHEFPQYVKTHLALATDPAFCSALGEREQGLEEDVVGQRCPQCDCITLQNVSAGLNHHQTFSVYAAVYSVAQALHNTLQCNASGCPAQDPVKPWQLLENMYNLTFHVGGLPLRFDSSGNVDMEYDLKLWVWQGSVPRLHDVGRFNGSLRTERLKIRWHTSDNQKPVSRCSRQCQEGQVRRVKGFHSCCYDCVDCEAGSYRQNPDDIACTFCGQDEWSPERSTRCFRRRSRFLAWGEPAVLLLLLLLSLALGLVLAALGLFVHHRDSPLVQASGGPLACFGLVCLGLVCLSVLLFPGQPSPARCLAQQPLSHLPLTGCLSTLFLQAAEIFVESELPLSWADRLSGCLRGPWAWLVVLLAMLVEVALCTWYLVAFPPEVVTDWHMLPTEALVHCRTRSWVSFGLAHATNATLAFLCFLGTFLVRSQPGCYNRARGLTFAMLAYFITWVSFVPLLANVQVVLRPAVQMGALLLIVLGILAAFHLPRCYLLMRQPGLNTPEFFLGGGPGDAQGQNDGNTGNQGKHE
T1 sequence (Q8TE23 20-839): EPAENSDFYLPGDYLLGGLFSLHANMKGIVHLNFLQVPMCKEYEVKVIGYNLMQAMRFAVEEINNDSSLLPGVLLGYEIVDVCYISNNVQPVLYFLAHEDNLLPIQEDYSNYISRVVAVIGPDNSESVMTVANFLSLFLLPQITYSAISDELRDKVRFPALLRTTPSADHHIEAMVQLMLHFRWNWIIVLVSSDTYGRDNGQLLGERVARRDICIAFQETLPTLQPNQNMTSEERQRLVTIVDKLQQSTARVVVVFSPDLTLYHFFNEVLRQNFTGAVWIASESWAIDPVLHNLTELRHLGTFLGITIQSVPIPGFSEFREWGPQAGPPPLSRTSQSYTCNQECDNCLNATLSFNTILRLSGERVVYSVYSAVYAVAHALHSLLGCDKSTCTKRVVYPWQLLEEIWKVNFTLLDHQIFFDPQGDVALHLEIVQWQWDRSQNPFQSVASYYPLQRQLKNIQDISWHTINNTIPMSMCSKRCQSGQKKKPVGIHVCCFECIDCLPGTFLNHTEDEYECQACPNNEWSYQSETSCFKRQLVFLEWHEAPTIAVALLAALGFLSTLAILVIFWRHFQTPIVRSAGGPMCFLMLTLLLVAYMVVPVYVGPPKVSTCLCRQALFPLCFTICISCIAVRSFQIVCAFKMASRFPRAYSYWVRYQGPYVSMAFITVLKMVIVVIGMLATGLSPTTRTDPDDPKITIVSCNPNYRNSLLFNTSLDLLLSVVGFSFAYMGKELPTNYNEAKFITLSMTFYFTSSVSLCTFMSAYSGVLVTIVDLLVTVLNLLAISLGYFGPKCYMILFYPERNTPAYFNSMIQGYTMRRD
Procedure: (§1) The cDNAs for TAS1Rs tagged at the C-terminus with the herpes simplex virus glycoprotein D (HSV) were transiently transfected into HEK293T cells stably expressing the chimeric G-protein subunit G16Gust44 [44] using Lipofectamine 2000 (Invitrogen, Carlsbad, CA) according to the manufacturer's protocol. 3–4 hours after transfection, DMEM was replaced by low-glucose DMEM supplemented with GlutaMAX and 10% dialyzed FBS (Invitrogen, Carlsbad, CA). 24 h post transfection, cells were loaded for 1 h with the calcium sensitive dye Fluo4-AM (2 μg/ml in DMEM, Molecular Probes, Carlsbad, CA). […] We monitored calcium mobilization following receptor stimulation with sweet tastants by an automated fluorometric imaging plate reader (FLIPR, Molecular Devices, Sunnyvale, CA). Compounds used as stimuli (Sigma-Aldrich, St. Louis, MO; Merck, Whitehouse Station, NJ) were dissolved in C1 solution. All data were collected from at least three independent experiments carried out in duplicate. The obtained calcium signals were corrected for the response of mock transfected cells and normalized to the fluorescence of cells prior to the application of the stimulus using ΔF/F = (F-F0)/F0.

[2] = molecular target: T2, hTAS1R2 + hTAS1R3 V621L^2.58 (Homo sapiens, UniProt Q7RTX0+Q8TE23, V621L); experiment: as above; format: cell-based; settings: for receptor activation: mutant V621L^2.58; for EC50: variant V621L^2.58, n.f. = no response to any tested sweetener
T2 construct: expressed in transfected cells; host or cells: HEK293T cells stably expressing G16Gust44
T2 sequence (Q8TE23 20-839): T1 sequence (Q8TE23 20-839)
T2 sequence (Q7RTX0 21-852 V621L): T1 sequence (Q7RTX0 21-852 C801I) with V601L, I781C
Procedure: as §1

EC50 [1] | Emax [1] | receptor activation [2] | EC50 [2] | Compound | receptor activation ([1]; mutant C801I^7.39, any tested concentration)
1600 ± 700 µM | 70 ± 13% | could not be activated | n.f. | COc1ccc(CCC(=O)c2c(O)cc(O[C@@H]3O[C@H](CO)[C@@H](O)[C@H](O)[C@H]3O[C@@H]3O[C@@H](C)[C@H](O)[C@@H](O)[C@H]3O)cc2O)cc1O [NHDC, neohesperidin dihydrochalcone] | 
 |  | could not be activated |  | CC1=CC(=O)NS(=O)(=O)O1 [acesulfame K] | 
1200 ± 500 µM | 50 ± 9% | could not be activated | n.f. | COC(=O)[C@H](Cc1ccccc1)NC(=O)[C@@H](N)CC(=O)O [aspartame] (HELM PEPTIDE1{D.F.[CO[*:1]]}$$$$V2.0) | 
 |  | could not be activated |  | O=S(=O)(O)NC1CCCCC1 [cyclamate] | could not be activated at any tested concentration
